Laboratory results reported in ChEMBL document CHEMBL4610027, “Identification of Mycobacterium tuberculosis CtpF as a target for designing new antituberculous compounds” (Bioorg Med Chem, 2020).

Test: Inhibition of calcium stimulated Mycobacterium tuberculosis H37Ra CtpF mutant ATPase activity using Na2ATP as substrate preincubated for 30 mins followed by substrate addition and measured after 30 mins by colorimetric analysis

Row | Structure (SMILES) | IC50
1 | CCC[C@H](C)NC(=O)CSc1nc2cc(S(=O)(=O)Nc3ccccc3OC)ccc2o1 | 109 µM
2 | C[C@@H](OC(=O)CCCNC1=NS(=O)(=O)c2ccccc21)C(=O)c1c[nH]c2ccccc12 | 102 µM
3 | O=C(CCCC[C@@H]1SC[C@@H]2NC(=O)N[C@@H]21)NCc1cn(-c2ccccc2)nc1-c1ccccc1 | 76.1 µM
4 | NS(=O)(=O)[C@H]1CC=C(CNC(=O)CCCc2c[nH]c3ccccc23)S1 | 100 µM
5 | COCC(=O)Nc1c(C(=O)OC)n(CCC(C)C)c2ncc(N[C@@H](C)C(C)(C)O)cc12 | 38.4 µM
6 | CC(=O)C1=C(O)[C@@H]2[C@H]3c4c[nH]c5cccc(c45)C[C@H]3C(C)(C)N2C1=O [CYCLOPIAZONIC ACID] | 94.5 µM
7 | CCCCC(=O)Nc1cccc(C(=O)NCCCNc2cccnc2)c1 | 96.9 µM
